Test results taken from patent publication US8119614B2, “Substitution derivatives of N6-benzyladenosine, methods of their preparation, their use for preparation of drugs, cosmetic preparations and growth regulators, pharmaceutical preparations, cosmetic preparations and growth regulators containing these compounds” (Ustav Experimentalni Botaniky Akademie Ved Ceske Republiky, priority 2002, dated 2012).

Assays:
HOS = assay: In vitro cytotoxic activity, Calcein AM assay, HOS; format: cell-based; settings: 72 hours
[1] = system: human erythroleukaemia K562; assay: In vitro cytotoxic activity, Calcein AM assay, K-562; format: cell-based; settings: 72 hours, read-out: IC 50 K-562
Excerpt: (§1) One of the parameters used, as the basis for cytotoxicity assays, is the metabolic activity of viable cells. For example, a microtiter assay, which uses the Calcein AM, is now widely used to quantitate cell proliferation and cytotoxicity. For instance, this assay is used in drug screening programs and in chemosensitivity testing. Because only metabolically active cells cleave Calcein AM, these assays detect viable cells exclusively. The quantity of reduced Calcein AM corresponds to the number of vital cells in the culture.
(§2) Human T-lymphoblastic leukemia cell line CEM; promyelocytic HL-60 and monocytic U937 leukemias; breast carcinoma cell lines MCF-7; cervical carcinoma cells HELA; mouse fibroblasts NIH3T3; human erythroleukaemia K562 and human malignant melanoma cells G361 were used for routine screening of compounds. The cells were maintained in Nunc/Corning 80 cm^2 plastic tissue culture flasks and cultured in cell culture medium (DMEM with 5 g/l glucose, 2 mM glutamine, 100 U/ml penicillin, 100 μg/ml streptomycin, 10% fetal calf serum and sodium bicarbonate).
(§3) The cell suspensions that were prepared and diluted according to the particular cell type and the expected target cell density (10^4 cells per well based on cell growth characteristics) were added by pipette (80 μl) into 96/well microtiter plates. Inoculates were allowed a pre-incubation period of 24 hours at 37° C. and 5% CO2 for stabilisation. Four-fold dilutions of the intended test concentration were added at time zero in 20 μl aliquots to the microtiter plate wells. Usually, test compound was evaluated at six 4-fold dilutions. In routine testing, the highest well concentration was 166.7 μM, but it can be the matter of change dependent on the agent. All drug concentrations were examined in duplicates. Incubations of cells with the test compounds lasted for 72 hours at 37° C., in 5% CO2 atmosphere and 100% humidity. At the end of incubation period, the cells were assayed by using the Calcein AM. Ten microliters of the stock solution were pipetted into each well and incubated further for 1 hours. Fluorescence (FD) was measured with the Labsystem FIA Reader Fluoroscan Ascent (UK). The tumour cell survival (GI50) was calculated using the following equitation: GI50=(FDdrug exposed well/mean FDcontrol wells)×100%. The GI50 value, the drug concentration lethal to 50% of the tumour cells, was calculated from the obtained dose response curves (FIG. 3).

[2] = system: breast carcinoma cell lines MCF-7; assay: In vitro cytotoxic activity, Calcein AM assay, MCF7; format: cell-based, human; settings: 72 hours, read-out: IC 50 MCF7
Excerpt: as §1, §2, §3

mouse fibroblasts NIH3T3 = assay: In vitro cytotoxic activity, Calcein AM assay, NIH-3T3; format: cell-based; settings: 72 hours, read-out: IC 50 NIH-3T3
Excerpt: as §1, §2, §3

[3] = system: Human T-lymphoblastic leukemia cell line CEM; assay: In vitro cytotoxic activity, Calcein AM assay, CEM; format: cell-based; settings: 72 hours
Excerpt: as §1, §2, §3

promyelocytic HL-60 = assay: In vitro cytotoxic activity, Calcein AM assay, HL60; format: cell-based, human; settings: 72 hours, read-out: IC 50 HL60
Excerpt: as §1, §2, §3

[4] = system: Triticum aestivum cv. Hereward; assay: Senescence inhibition on winter wheat leaf segments (chlorophyll retention); format: in vivo; settings: for Concentration with highest activity: chlorophyll retention in excised wheat leaf tips, 96 h dark; for Activity (%) [10^−4 mol · l^−1 BAP = 100%]: chlorophyll retention, at concentration with highest activity
Procedure: Seeds of winter wheat, Triticum aestivum cv. Hereward, were washed under running water for 24 hours and then sown on vermiculite soaked with Knop's solution. They were placed in the grown chamber at 15° C. with a 16/8 h light period at 50 μmol·m^−2·s^−1. After 7 days, the first leaf was fully developed and the second leaf had started to grow. A tip section of the first leaf, approximately 35 mm long, was removed from 5 seedlings and trimmed slightly to a combined weight of 100 mg. The basal ends of the five leaf tips were placed in the wells of a microtiter polystyrene plate containing 150 μl of a cytokinin solution each. The entire plate was inserted into a plastic box lined with paper tissues soaked in distilled water to prevent leaf sections from drying out. After a 96 h incubation in the dark at 25° C., the leaves were removed and chlorophyll extracted by heating at 80° C. for 10 min in 5 ml of 80% ethanol (v/v). The sample volume was then restored to 5 ml by the addition of 80% ethanol (v/v). The absorbency of the extract was recorded at 665 nm. In addition, chlorophyll extracts from fresh leaves and leaf tips incubated in deionised water were measured. From the obtained data, the concentration with highest activity was selected for each compound tested. Relative activity of the compound at this concentration was calculated (Tab. 10). The activity obtained for 10^−4 M 6-benzylaminopurine (BAP) was postulated as 100%. The values shown are means of five replicates and the whole experiment was repeated twice. The cytokinins to be tested were dissolved in dimethylsulfoxide (DMSO) and the solution brought up to 10^−3M with distilled water. This stock was further diluted in distilled water to concentrations ranging from 10^−8M to 10^−4M.

[5] = system: tobacco callus Nicotiana tabacum L. cv. Wisconsin 38; assay: Growth of cytokinin-dependent tobacco callus; format: cell-based; settings: for Activity (%) [10^−5 mol · l^−1 BAP = 100%]: callus growth, at concentration with highest activity; for Concentration with highest activity: fresh callus weight after four weeks
Procedure: Cytokinin-dependent tobacco callus Nicotiana tabacum L. cv. Wisconsin 38 was maintained at 25° C. in darkness on modified Murashige-Skoog medium, containing per 1 liter: 4 μmol nicotinic acid, 2.4 μmol pyridoxine hydrochloride, 1.2 μmol thiamine, 26.6 μmol glycine, 1.37 μmol glutamine, 1.8 μmol myo-inositol, 30 g of sucrose, 8 g of agar, 5.37 μmol α-naphtylacetic acid (NAA) and 0.5 μmol benzylaminopurine (BAP). Subcultivation was carried out every three weeks. Fourteen days before the bioassay, the callus tissue was transferred to the media without 6-benzylaminopurine (BAP). Biological activity was determined from the increase in fresh callus weight after four weeks of cultivation. Five replicates were prepared for each cytokinin concentration and the entire test was repeated twice. From the obtained data, the concentration with highest activity was selected for each compound tested. Relative activity of the compound at this concentration was calculated (Tab. 6). […] The cytokinins to be tested were dissolved in dimethylsulfoxide (DMSO) and the solution brought up to 10^−3M with distilled water. This stock was further diluted in the respective media used for the biotest to concentrations ranging from 10^−8M to 10^−4M.

[6] = system: Amaranthus caudatus cotyledon/hypocotyl explants; assay: Amaranthus bioassay (betacyanin content); format: in vivo; settings: for Concentration with highest activity: 48 h dark; for Activity (%) [10^−5 mol · l^−1 BAP = 100%]: at concentration with highest activity
Procedure: Standard Amaranthus bioassay was performed with several modifications. The seeds of Amaranthus caudatus var. atropurpurea were surface-sterilised in 10% N-chlorobenzenesulfonamide (w/v) for 10 min and washed 5 times in deionized water. They were placed in 15 cm Petri dishes containing paper tissues saturated with deionized water. After 72 h of cultivation at 25° C. in darkness, the roots of the seedlings were cut off. The explants, consisting of two cotyledons and hypocotyls, were placed in 5 cm Petri dishes on two layers of filter paper soaked in 1 ml of incubation medium containing 10 μmol NA2HPO4-KH2PO4, pH 6.8, 5 μmol tyrosine and the cytokinin to be tested. There were 20 explants per dish. The procedure was carried out under a green safe light in a darkroom. After a 48 h of incubation at 25° C. in darkness, betacyanin was extracted by freezing the explants in 4 ml […] acetic acid. The concentration of betacyanin was determined by comparing the absorbance at 537 nm and 620 nm as follows: ΔA=[…]-[…]. From the obtained data, the concentration with highest activity was selected for each compound tested. Relative activity of the compound at this concentration was calculated (Tab. 12). […] The values shown in table 8 are means of five replicates and the entire test was repeated twice. The cytokinins to be tested were dissolved in dimethylsulfoxide (DMSO) and the solution brought up to 10^-3M with distilled water. This stock was further diluted in the respective media used for the biotest to concentrations ranging from 10^-8M to 10^-4M. […] From the data obtained (FIG. 14) the maximum effective concentration of the tested compound was calculated as well as its relative effectiveness at this concentration (Table 12). […]

| Structure (SMILES) | IC50 (HOS) [µM] | IC50 [1] [µM] | IC50 [2] [µM] | IC50 (mouse fibroblasts NIH3T3) [µM] | IC50 [3] [µM] | IC50 (promyelocytic HL-60) [µM] | Concentration with highest activity [4] | Activity (%) [10^−4 mol · l^−1 BAP = 100%] [4] [%] | Activity (%) [10^−5 mol · l^−1 BAP = 100%] [5] [%] | Concentration with highest activity [5] | Concentration with highest activity [6] | Activity (%) [10^−5 mol · l^−1 BAP = 100%] [6] [%] |
| --- | --- | --- | --- | --- | --- | --- | --- | --- | --- | --- | --- | --- |
| OC[C@H]1O[C@@H](n2cnc3c(NCc4ccc(F)c(F)c4F)ncnc32)[C@H](O)[C@@H]1O [2,3,4-trifluorobenzylamino, 6-(2,3,4-trifluorobenzylamino)purine riboside] | > 167 | > 167 | > 167 | > 167 | 58.2 | 13 | 10^−4 mol · l^−1 | 144 ± 12 |  |  |  |  |
| OC[C@H]1O[C@@H](n2cnc3c(NCc4cc(F)c(F)cc4F)ncnc32)[C@H](O)[C@@H]1O [2,4,5-trifluorobenzylamino, 6-(2,4,5-trifluorobenzylamino)purine riboside] |  |  |  |  |  |  |  |  | 95 ± 3 | 10^−5 mol · l^−1 | 10^−4 mol · l^−1 | 120 ± 1 |
| OC[C@H]1O[C@@H](n2cnc3c(NCc4ccc(Cl)cc4Cl)ncnc32)[C@H](O)[C@@H]1O [2,4-dichlorobenzylamino, 6-(2,4-dichlorobenzylamino)purine riboside] | > 167 | 85.7 | 127 | > 167 | 86.7 | 96.3 | 10^−5 mol · l^−1 | 5 ± 1 |  |  | 10^−4 mol · l^−1 | 3 ± 2 |
| OC[C@H]1O[C@@H](n2cnc3c(NCc4ccc(F)cc4F)ncnc32)[C@H](O)[C@@H]1O [2,4-difluorobenzylamino, 6-(2,4-difluorobenzylamino)purine riboside] | > 167 | 7.4 | > 167 | > 167 | 7.1 | 3.4 | 10^−4 mol · l^−1 | 171 ± 8 |  |  | 10^−4 mol · l^−1 | 88 ± 7 |
| OC[C@H]1O[C@@H](n2cnc3c(NCc4ccc(F)cc4Cl)ncnc32)[C@H](O)[C@@H]1O [2-chloro-4-fluorobenzylamino, 6-(2-chloro-4-fluorobenzylamino)purine riboside] | > 167 | 11.7 | > 167 | > 167 | 20.9 | 9 |  |  | 98 ± 4 | 10^−5 mol · l^−1 | 10^−4 mol · l^−1 | 115 ± 1 |
| COc1ccc(CNc2ncnc3c2ncn3[C@@H]2O[C@H](CO)[C@@H](O)[C@H]2O)cc1OC [3,4-dimethoxybenzylamino, 6-(3,4-dimethoxybenzylamino)purine riboside] |  |  |  |  |  |  | 10^−4 mol · l^−1 | 47 ± 6 |  |  | 10^−4 mol · l^−1 | 2 ± 1 |
| COc1ccc(CNc2ncnc3c2ncn3[C@@H]2O[C@H](CO)[C@@H](O)[C@H]2O)cc1O [3-hydroxy-4-methoxybenzylamino, 6-(3-hydroxy-4-methoxybenzylamino)purine riboside] | > 167 | > 167 | > 167 | > 167 | > 167 | > 167 | 10^−4 mol · l^−1 | 22 ± 5 |  |  | 10^−4 mol · l^−1 | 0 |
| OC[C@H]1O[C@@H](n2cnc3c(NCc4cccc(I)c4)ncnc32)[C@H](O)[C@@H]1O [3-jodobenzylamino, 6-(3-iodobenzylamino)purine riboside] |  |  |  |  |  |  | 10^−4 mol · l^−1 | 98 ± 4 | 47 ± 12 | 10^−6 mol · l^−1 | 10^−5 mol · l^−1 | 102 ± 18 |
